Test results taken from the NIST ThermoML archive (doi:10.1016/j.jct.2016.06.023).
± gives the expanded uncertainty stated by the source.

Experiment: mn = molality of the nth substance listed, in mol/kg
Conditions: 101.3 kPa, Liquid, Vibrating tube method

O=C(O)CC(=O)O [propanedioic acid] + O
mass density [kg/m3]
Conditions	313.15 K	318.15 K	323.15 K	328.15 K	333.15 K	338.15 K	343.15 K
m1 = 0.01001	992.67 ± 0.4	990.67 ± 0.4	988.48 ± 0.4	986.12 ± 0.4	983.63 ± 0.4	980.99 ± 0.4	978.22 ± 0.4
m1 = 0.02001	993.03 ± 0.4	991.04 ± 0.4	988.85 ± 0.4	986.5 ± 0.4	984.01 ± 0.4	981.37 ± 0.4	978.59 ± 0.4
m1 = 0.03	993.37 ± 0.4	991.39 ± 0.4	989.19 ± 0.4	986.83 ± 0.4	984.34 ± 0.4	981.69 ± 0.4	978.9 ± 0.4
m1 = 0.03962	993.74 ± 0.4	991.75 ± 0.4	989.54 ± 0.4	987.17 ± 0.4	984.68 ± 0.4	982.03 ± 0.4	979.24 ± 0.4
m1 = 0.04998	994.12 ± 0.4	992.09 ± 0.4	989.92 ± 0.4	987.55 ± 0.4	985.05 ± 0.4	982.41 ± 0.4	979.6 ± 0.4
m1 = 0.05936	994.45 ± 0.4	992.44 ± 0.4	990.24 ± 0.4	987.86 ± 0.4	985.36 ± 0.4	982.72 ± 0.4	979.92 ± 0.4
m1 = 0.06926	994.8 ± 0.4	992.8 ± 0.4	990.58 ± 0.4	988.21 ± 0.4	985.69 ± 0.4	983 ± 0.4	980.22 ± 0.4
m1 = 0.07949	995.16 ± 0.4	993.16 ± 0.4	990.94 ± 0.4	988.56 ± 0.4	986.05 ± 0.4	983.39 ± 0.4	980.58 ± 0.4
m1 = 0.08906	995.51 ± 0.4	993.49 ± 0.4	991.26 ± 0.4	988.89 ± 0.4	986.37 ± 0.4	983.68 ± 0.4	980.9 ± 0.4
m1 = 0.09935	995.86 ± 0.4	993.83 ± 0.4	991.63 ± 0.4	989.26 ± 0.4	986.72 ± 0.4	984.02 ± 0.4	981.18 ± 0.4
m1 = 0.1984	999.32 ± 0.4	997.27 ± 0.4	995 ± 0.4	992.58 ± 0.4	990.02 ± 0.4	987.31 ± 0.4	984.49 ± 0.4
m1 = 0.2977	1002.76 ± 0.4	1000.66 ± 0.4	998.36 ± 0.4	995.89 ± 0.4	993.31 ± 0.4	990.55 ± 0.4	987.71 ± 0.4
m1 = 0.404	1006.4 ± 0.4	1004.17 ± 0.4	1001.82 ± 0.4	999.32 ± 0.4	996.78 ± 0.4	993.95 ± 0.4	991.05 ± 0.4
m1 = 0.5055	1009.9 ± 0.4	1007.57 ± 0.4	1005.17 ± 0.4	1002.63 ± 0.4	999.91 ± 0.4	997.16 ± 0.4	994.29 ± 0.4
m1 = 0.6055	1013.17 ± 0.4	1010.78 ± 0.4	1008.36 ± 0.4	1005.78 ± 0.4	1003.1 ± 0.4	1000.24 ± 0.4	997.39 ± 0.4
m1 = 0.6936	1016.02 ± 0.4	1013.61 ± 0.4	1011.15 ± 0.4	1008.54 ± 0.4	1005.81 ± 0.4	1002.93 ± 0.4	1000.21 ± 0.4
m1 = 0.7926	1019.25 ± 0.4	1016.73 ± 0.4	1014.23 ± 0.4	1011.64 ± 0.4	1008.99 ± 0.4	1006 ± 0.4	1002.97 ± 0.4
m1 = 0.891	1022.41 ± 0.4	1019.67 ± 0.4	1017.35 ± 0.4	1014.68 ± 0.4	1011.89 ± 0.4	1008.94 ± 0.4	1005.93 ± 0.4
m1 = 0.9895	1025.39 ± 0.4	1022.8 ± 0.4	1020.22 ± 0.4	1017.49 ± 0.4	1014.63 ± 0.4	1011.16 ± 0.4	1008.49 ± 0.4
